Results from ChEMBL document CHEMBL1127923, “Design and synthesis of squalene synthase inhibitors - acylic mimics of the zaragazic acids” (Bioorg Med Chem Lett, 1994).

Molecular target: T1, Squalene synthase (Rattus norvegicus) (UniProt Q02769)
T1 sequence (whole entry): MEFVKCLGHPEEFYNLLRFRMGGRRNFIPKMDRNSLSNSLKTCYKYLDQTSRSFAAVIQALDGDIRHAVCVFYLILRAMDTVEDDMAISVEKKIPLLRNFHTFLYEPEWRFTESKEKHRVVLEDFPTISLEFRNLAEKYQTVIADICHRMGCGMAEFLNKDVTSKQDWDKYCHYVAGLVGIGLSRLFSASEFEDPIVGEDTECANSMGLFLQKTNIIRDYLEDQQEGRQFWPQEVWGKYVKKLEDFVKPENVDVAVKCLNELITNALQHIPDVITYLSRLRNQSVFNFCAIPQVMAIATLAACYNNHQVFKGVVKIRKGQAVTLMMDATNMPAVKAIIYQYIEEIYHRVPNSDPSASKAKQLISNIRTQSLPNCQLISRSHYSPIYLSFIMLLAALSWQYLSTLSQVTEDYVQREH
Assay: Inhibitory activity against squalene synthase in rat liver squalene synthase (RLSS) enzyme assay

| Activity | SMILES |
| --- | --- |
| 200 nM | CC(=O)O[C@H](CCOC(=O)C[C@@H](OC(=O)CCCCCCCCCCOc1ccccc1)C(=O)O[C@H](CC(=O)O)C(=O)O)[C@H](C)Cc1ccccc1 |
| > 3000 nM | CC(=O)O[C@H](CCCOC(=O)C[C@@H](OC(=O)CCCCCCCCCCOc1ccccc1)C(=O)N1CCC[C@H]1C(=O)O)[C@H](C)Cc1ccccc1 |
| > 3000 nM | CC(=O)O[C@H](CCCOC(=O)C(OC(=O)CCCCCCCCCCOc1ccccc1)C(=O)O[C@H](CC(=O)O)C(=O)O)[C@H](C)Cc1ccccc1 (some centres not stated) |
| 300 nM | CC[C@H](C)C[C@H](C)/C=C/C(=O)O[C@H](CC(=O)OCCC[C@@H](OC(=O)C(F)(F)F)[C@H](C)Cc1ccccc1)C(=O)O[C@@H](C(=O)O)[C@@H](O)C(=O)O |
| 200 nM | CC(=O)O[C@H](CCCOC(=O)C[C@@H](OC(=O)CCCCCCCCCCOc1ccccc1)C(=O)OC(C(=O)O)C(=O)O)[C@H](C)Cc1ccccc1 |
| 470 nM | CC[C@H](C)C[C@H](C)/C=C/C(=O)O[C@H](CC(=O)OCCC[C@@H](OC(C)=O)[C@H](C)Cc1ccccc1)C(=O)O[C@H](CC(=O)O)C(=O)O |
| 0.35 nM | C=C(CCC12OC(C(=O)O)C(O)(C(=O)O)C(C(=O)O)(O1)[C@H](OC(=O)/C=C/[C@@H](C)C[C@@H](C)CC)[C@H]2O)[C@@H](OC(C)=O)[C@H](C)Cc1ccccc1 (some centres not stated) |
